# Test results as given in article PMC3934385, “Componential Profile and Amylase Inhibiting Activity of Phenolic Compounds from Calendula officinalis L. Leaves” (The Scientific World Journal, 2014).
# Biological target: T1, amylase from Aspergillus niger
# T1 construct: gene aamA
# Experiment: starch hydrolysis, glucose oxidase/peroxidase coupled, A510 microplate
# Type: biochemical
# Details: 2% starch, phosphate pH 5.0, preincubation 20 min 45°C, then 30 min 50°C
# Description: starch hydrolysis, glucose oxidase/peroxidase coupled, A510 microplate on amylase from Aspergillus niger
SMILES,IC50,IC50 (μg mL^-1)
"O=C(O)/C=C/c1ccc(O)c(O)c1 [compound 7, caffeic acid]",2.53 µg/mL,–
"O=c1ccc2ccc(O)cc2o1 [compound 12, umbelliferone]",> 100 µg/mL,–
"COc1cc(-c2oc3cc(O)cc(O)c3c(=O)c2O)ccc1O [compound 21, isorhamnetin]",2.64 µg/mL,–
"O=c1c(O)c(-c2ccc(O)c(O)c2)oc2cc(O)cc(O)c12 [compound 17, quercetin]",1.79 µg/mL,–
"COc1cc(C(=O)O[C@@H]2O[C@H](CO)[C@@H](O)[C@H](O)[C@H]2O)ccc1O [compound 5, 1′-O-vanilloyl-β-D-glucopyranose]",73.69 µg/mL,–
"C[C@H]1O[C@H](O[C@H]2[C@H](O)[C@@H](O)[C@@H](O[C@H]3[C@H](O)[C@@H](O)C(O)O[C@@H]3CO)O[C@@H]2CO)[C@H](O)[C@@H](O)[C@@H]1N[C@H]1C=C(CO)[C@@H](O)[C@H](O)[C@H]1O (stereo partly shown) [Acarbose, reference compound]",9.54 ± 0.32 µg/mL,–
"COc1cc(-c2oc3cc(O)cc(O)c3c(=O)c2O[C@@H]2O[C@H](COC(C)=O)[C@@H](O)[C@H](O)[C@H]2O)ccc1O [compound 23, isorhamnetin-3-O-(6′′-acetyl)-β-D-glucopyranoside]",–,~ 100 μg mL^−1
"COc1cc2ccc(=O)oc2cc1O [compound 16, scopoletin]",–,~ 100 μg mL^−1
"O=C(OC[C@H]1OC(O)[C@H](O)[C@@H](O)[C@@H]1O)c1ccc(O)c(O)c1 (stereo partly drawn) [compound 4, 6′-O-protocatechuoyl-β-D-glucopyranose]",66.52 µg/mL,–
"O=C(O[C@@H]1O[C@H](CO)[C@@H](O)[C@H](O)[C@H]1O)c1ccc(O)c(O)c1 [compound 3, 1′-O-protocatechuoyl-β-D-glucopyranose]",62.46 µg/mL,–
"O=C(/C=C/c1ccc(O)c(O)c1)O[C@@H]1[C@H](O)C[C@@](O)(C(=O)O)C[C@H]1OC(=O)/C=C/c1ccc(O)c(O)c1 [compound 11, 4,5-di-O-caffeoylquinic acid]",26.65 µg/mL,–
"CC(=O)OC[C@H]1O[C@@H](Oc2c(-c3ccc(O)c(O)c3)oc3cc(O)cc(O)c3c2=O)[C@H](O)[C@@H](O)[C@@H]1O [compound 19, quercetin-3-O-(6′′-acetyl)-β-D-glucopyranoside]",32.70 µg/mL,–
"COc1cc(-c2oc3cc(O)cc(O)c3c(=O)c2O[C@@H]2O[C@H](CO[C@@H]3O[C@@H](C)[C@H](O)[C@@H](O)[C@H]3O)[C@@H](O)[C@H](O)[C@H]2O)ccc1O [compound 24, narcissin]",> 100 µg/mL,–
"O=c1c(O[C@@H]2O[C@H](CO)[C@@H](O)[C@H](O)[C@H]2O)c(-c2ccc(O)c(O)c2)oc2cc(O)cc(O)c12 [compound 18, isoquercitrin]",15.45 µg/mL,–
"C[C@@H]1O[C@@H](OC[C@H]2O[C@@H](Oc3c(-c4ccc(O)c(O)c4)oc4cc(O)cc(O)c4c3=O)[C@H](O)[C@@H](O)[C@@H]2O)[C@H](O)[C@H](O)[C@H]1O [compound 20, rutin]",89.85 µg/mL,–
"O=C(/C=C/c1ccc(O)c(O)c1)O[C@@H]1C[C@](O)(C(=O)O)C[C@@H](OC(=O)/C=C/c2ccc(O)c(O)c2)[C@H]1O [compound 9, 3,5-di-O-caffeoylquinic acid]",25.63 µg/mL,–
"O=C(O[C@@H]1O[C@H](CO)[C@@H](O)[C@H](O)[C@H]1O)c1ccc(O)cc1 [compound 1, 1′-O-p-hydroxybenzoyl-β-D-glucopyranose]",> 100 µg/mL,–
"O=c1ccc2cc(O[C@@H]3O[C@H](CO)[C@@H](O)[C@H](O)[C@H]3O)c(O)cc2o1 [compound 14, aesculin]",> 100 µg/mL,–
"COc1cc(-c2oc3cc(O)cc(O)c3c(=O)c2O[C@@H]2O[C@H](CO[C@@H]3O[C@@H](C)[C@H](O)[C@@H](O)[C@H]3O)[C@@H](O)[C@H](O)[C@H]2O[C@@H]2O[C@@H](C)[C@H](O)[C@@H](O)[C@H]2O)ccc1O [compound 25, thyphaneoside]",> 100 µg/mL,–
"O=c1ccc2cc(O)c(O[C@@H]3O[C@H](CO)[C@@H](O)[C@H](O)[C@H]3O)cc2o1 [compound 15, cichoriin]",> 100 µg/mL,–
"COc1cc(-c2oc3cc(O)cc(O)c3c(=O)c2O[C@@H]2O[C@H](CO)[C@@H](O)[C@H](O)[C@H]2O)ccc1O [compound 22, isorhamnetin-3-O-β-D-glucopyranoside]",23.41 µg/mL,–
"O=c1ccc2cc(O)c(O)cc2o1 [compound 13, aesculetin]",1.02 µg/mL,–
"COc1cc(C(=O)OC[C@H]2OC(O)[C@H](O)[C@@H](O)[C@@H]2O)ccc1O (mixture of isomers) [compound 6, 6′-O-vanilloyl-β-D-glucopyranose]",79.18 µg/mL,–
"O=C(OC[C@H]1OC(O)[C@H](O)[C@@H](O)[C@@H]1O)c1ccc(O)cc1 (stereo partly drawn) [compound 2, 6′-O-p-hydroxybenzoyl-β-D-glucopyranose]",> 100 µg/mL,–
"O=C(/C=C/c1ccc(O)c(O)c1)O[C@@H]1C[C@](OC(=O)/C=C/c2ccc(O)c(O)c2)(C(=O)O)C[C@@H](O)[C@H]1O [compound 10, 1,5-di-O-caffeoylquinic acid]",37.15 µg/mL,–
